# Activity calls are given as the source filed them.
# Key:
# [1] = target: Eukaryotic translation initiation factor 4E (Mus musculus, UniProt P63073); assay: blockers of eIF4G binding by eIF4E – biochemical, TR-FRET, dose response (AID 855); type: functional;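 further: potency for disrupting eIF4E binding to eIF4GI seen as loss of FRET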
# [2] = target: T1, Rac GTPase-activating protein 1 (Homo sapiens, UniProt Q9H0H5); assay: blockers of MgcRacGAP-driven Rac1 GTP hydrolysis – biochemical, ADP Hunter fluorescence, primary and confirmatory, confirmation (AID 624330); type: functional
# T1 sequence (Q9H0H5 whole entry): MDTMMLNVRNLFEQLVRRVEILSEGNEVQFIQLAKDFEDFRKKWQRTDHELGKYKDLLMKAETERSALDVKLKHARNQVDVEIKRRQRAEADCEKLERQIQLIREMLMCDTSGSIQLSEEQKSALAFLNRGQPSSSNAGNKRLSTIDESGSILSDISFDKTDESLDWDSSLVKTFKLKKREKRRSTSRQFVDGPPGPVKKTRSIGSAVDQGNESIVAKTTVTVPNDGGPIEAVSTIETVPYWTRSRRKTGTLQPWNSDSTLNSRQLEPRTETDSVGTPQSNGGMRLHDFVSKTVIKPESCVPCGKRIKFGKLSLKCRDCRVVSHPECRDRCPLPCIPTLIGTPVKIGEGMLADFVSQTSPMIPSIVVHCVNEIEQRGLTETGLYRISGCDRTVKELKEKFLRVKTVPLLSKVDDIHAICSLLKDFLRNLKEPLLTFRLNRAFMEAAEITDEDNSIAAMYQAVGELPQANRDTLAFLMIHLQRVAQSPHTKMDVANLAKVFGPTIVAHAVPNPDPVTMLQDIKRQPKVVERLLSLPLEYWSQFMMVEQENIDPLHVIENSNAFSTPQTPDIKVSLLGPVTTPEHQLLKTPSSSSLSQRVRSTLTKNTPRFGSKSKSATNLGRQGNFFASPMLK
# [3] = target: T2, Calpain-2 catalytic subunit (Sus scrofa, UniProt P43367); assay: m-calpain protease blockers, concentration series – biochemical, fluorogenic peptide substrate, dose response (AID 1420); type: functional
# T2 sequence (P43367 whole entry): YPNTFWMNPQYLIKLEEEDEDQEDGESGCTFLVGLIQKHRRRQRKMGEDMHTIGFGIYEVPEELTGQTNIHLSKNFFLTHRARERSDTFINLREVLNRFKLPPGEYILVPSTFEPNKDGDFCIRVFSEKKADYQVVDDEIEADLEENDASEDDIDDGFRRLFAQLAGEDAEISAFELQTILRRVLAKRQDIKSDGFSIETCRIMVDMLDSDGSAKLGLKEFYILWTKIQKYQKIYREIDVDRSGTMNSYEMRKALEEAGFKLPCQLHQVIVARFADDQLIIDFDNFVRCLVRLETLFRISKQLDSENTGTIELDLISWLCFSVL
# [4] = target: T3, DNA repair and recombination protein RAD54-like (Homo sapiens, UniProt Q92698); assay: RAD54 Holliday junction migration blockers – biochemical, fluorescence, cherry-picked samples, dose series, confirmation (AID 651657); type: functional
# T3 sequence (Q92698 whole entry): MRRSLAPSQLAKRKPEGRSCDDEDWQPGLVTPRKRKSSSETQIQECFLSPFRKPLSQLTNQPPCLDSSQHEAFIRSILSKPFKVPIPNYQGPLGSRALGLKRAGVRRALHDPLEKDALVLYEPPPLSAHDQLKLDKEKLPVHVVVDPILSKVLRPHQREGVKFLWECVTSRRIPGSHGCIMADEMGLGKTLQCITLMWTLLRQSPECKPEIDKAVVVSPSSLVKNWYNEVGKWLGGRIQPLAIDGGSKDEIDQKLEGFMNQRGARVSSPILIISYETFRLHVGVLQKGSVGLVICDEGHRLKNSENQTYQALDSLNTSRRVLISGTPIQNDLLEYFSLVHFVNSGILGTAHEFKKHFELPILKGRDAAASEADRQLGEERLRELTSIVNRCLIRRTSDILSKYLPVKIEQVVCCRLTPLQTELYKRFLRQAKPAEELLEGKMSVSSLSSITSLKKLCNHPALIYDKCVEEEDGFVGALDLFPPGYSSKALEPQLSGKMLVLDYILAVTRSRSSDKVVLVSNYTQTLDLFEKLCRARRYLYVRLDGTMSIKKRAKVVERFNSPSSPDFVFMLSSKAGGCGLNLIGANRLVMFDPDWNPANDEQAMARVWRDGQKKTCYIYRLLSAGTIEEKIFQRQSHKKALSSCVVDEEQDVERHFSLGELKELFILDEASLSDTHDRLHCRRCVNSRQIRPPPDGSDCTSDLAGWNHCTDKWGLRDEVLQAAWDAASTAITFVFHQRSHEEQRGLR
# [5] = target: T4, DNA repair protein RAD52 homolog (Homo sapiens, UniProt P43351); type: functional, biochemical
# T4 sequence (P43351 whole entry): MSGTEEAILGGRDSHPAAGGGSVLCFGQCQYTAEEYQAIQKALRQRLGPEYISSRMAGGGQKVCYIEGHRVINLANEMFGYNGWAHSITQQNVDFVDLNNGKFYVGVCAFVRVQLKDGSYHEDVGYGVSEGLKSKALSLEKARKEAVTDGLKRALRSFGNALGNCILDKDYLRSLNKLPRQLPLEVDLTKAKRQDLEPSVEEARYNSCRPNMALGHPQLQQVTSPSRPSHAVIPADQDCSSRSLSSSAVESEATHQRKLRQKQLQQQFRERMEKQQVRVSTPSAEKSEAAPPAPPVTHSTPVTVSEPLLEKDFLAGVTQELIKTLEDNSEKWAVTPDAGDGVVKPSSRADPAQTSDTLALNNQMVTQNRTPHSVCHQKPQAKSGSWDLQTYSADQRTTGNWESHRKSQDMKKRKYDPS
# [6] = target: Glyceraldehyde-3-phosphate dehydrogenase (Homo sapiens, UniProt P04406)
# [7] = target: T5, Heat shock factor protein 1 (Mus musculus, UniProt P38532); assay: decrease of HSF1-responsive luciferase luminescence – cell-based, NIH3T3, dose retest, confirmation (AID 2382); type: functional;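 further: NIH3T3 fibroblasts with HSF1-driven luciferase reporter stressed by proteasome inhibitor MG132; luminescence from HSF1-driven luciferase expression after 8 hours of MG132 stress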
# T5 sequence (P38532 whole entry): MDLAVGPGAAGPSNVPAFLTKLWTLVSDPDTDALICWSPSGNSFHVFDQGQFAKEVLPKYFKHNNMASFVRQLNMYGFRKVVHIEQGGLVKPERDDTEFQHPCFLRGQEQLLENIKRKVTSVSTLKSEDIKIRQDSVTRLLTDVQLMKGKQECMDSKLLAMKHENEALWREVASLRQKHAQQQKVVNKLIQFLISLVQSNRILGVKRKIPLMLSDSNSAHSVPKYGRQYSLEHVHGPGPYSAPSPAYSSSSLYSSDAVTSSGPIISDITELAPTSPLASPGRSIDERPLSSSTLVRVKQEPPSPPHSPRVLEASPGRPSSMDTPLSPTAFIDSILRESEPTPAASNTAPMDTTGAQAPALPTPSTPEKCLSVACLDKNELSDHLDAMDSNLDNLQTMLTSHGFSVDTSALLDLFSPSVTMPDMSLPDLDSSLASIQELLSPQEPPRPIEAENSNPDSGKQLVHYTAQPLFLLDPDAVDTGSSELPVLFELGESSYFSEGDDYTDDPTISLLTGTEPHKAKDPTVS
# [8] = target: Estrogen receptor beta (Homo sapiens, UniProt Q92731);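 further: recombinant ER-beta bound to coactivator SRC1 peptide in presence of estradiol agonist; inhibitors block coactivator peptide binding and lower the FRET signal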
# [9] = system: BJ; assay: BJ-TERT-LT-ST fibroblast viability loss – cell-based, RAS-independent, luminescence, dose response (AID 1935); type: functional; settings: Homo sapiens;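 further: BJ fibroblasts immortalized with TERT plus LT and ST oncogenes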
# [10] = system: BJ; assay: cells; type: functional, cell-based; settings: Homo sapiens
# [11] = DRD fibroblast viability loss – cell-based, non-viral oncogenic, luminescence, dose response (AID 1934); type: functional; settings: Homo sapiens
# [12] = viability of HCT116 lacking mutant beta-catenin – cell-based, human colon tumor, dose response (AID 1045); type: functional;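 further: HCT116 colon tumor cells with beta catenin knocked out; cells exposed to compound for 60 hours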
# [13] = viability of PTEN-deleted HCT116 cells – cell-based, HCT116 PTEN knockout, dose response (AID 1047); type: functional;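 further: HCT116 colon tumor cells with PTEN knocked out; cells exposed to compound for 60 hours before readout; potency for loss of cell viability measured by luminescence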
# [14] = system: BJ; assay: BJ-TERT fibroblast viability loss – cell-based, RAS-independent, luminescence, dose response (AID 1933); type: functional; settings: Homo sapiens
# [15] = target: T6, Short transient receptor potential channel 4 (Mus musculus, UniProt Q9QUQ5); assay: calcium entry via TRPC4 opening agents – cell-based, HEK293 TRPC4/mu-opioid, Fluo-4 calcium, dose response (AID 434937); type: functional
# T6 sequence (Q9QUQ5 whole entry): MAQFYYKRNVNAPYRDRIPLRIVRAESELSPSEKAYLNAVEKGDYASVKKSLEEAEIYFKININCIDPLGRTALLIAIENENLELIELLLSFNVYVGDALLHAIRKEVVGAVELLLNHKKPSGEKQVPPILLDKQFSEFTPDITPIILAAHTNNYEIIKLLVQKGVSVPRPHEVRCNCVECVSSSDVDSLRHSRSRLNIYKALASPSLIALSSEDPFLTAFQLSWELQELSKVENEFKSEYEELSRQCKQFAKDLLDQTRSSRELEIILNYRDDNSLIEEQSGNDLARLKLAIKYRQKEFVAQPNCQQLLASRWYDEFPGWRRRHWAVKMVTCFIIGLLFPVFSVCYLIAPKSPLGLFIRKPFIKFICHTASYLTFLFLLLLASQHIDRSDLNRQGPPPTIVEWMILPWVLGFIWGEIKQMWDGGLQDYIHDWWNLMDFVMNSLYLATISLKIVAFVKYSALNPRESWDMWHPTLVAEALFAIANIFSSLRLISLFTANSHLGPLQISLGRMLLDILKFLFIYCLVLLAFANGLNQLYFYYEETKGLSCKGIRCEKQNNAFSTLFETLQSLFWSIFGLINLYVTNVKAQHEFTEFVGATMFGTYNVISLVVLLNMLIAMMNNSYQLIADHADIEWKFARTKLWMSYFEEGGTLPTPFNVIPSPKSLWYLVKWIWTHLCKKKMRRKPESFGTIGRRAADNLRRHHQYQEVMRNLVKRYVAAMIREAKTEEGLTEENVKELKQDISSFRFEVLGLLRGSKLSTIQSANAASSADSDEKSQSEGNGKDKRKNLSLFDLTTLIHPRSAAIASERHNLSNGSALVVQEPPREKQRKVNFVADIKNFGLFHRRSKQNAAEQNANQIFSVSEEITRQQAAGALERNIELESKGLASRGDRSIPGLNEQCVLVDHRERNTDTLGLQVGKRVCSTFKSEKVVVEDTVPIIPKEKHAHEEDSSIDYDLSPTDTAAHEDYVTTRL
# [16] = THP-1 cell cytotoxicity, dose response, cytotoxicity control for non-replicating M. tuberculosis project (AID 489025); type: functional
# [17] = Luminescence Cell-Based Dose Response HTS to Identify Activators of Luciferase Translation or Activity in H4 […] Cells. [Related pubchem assays: 1829 (Project Summary), 1814 (Primary HTS)]; type: functional
# [18] = system: H4; assay: Luminescence Cell-Based Dose Response HTS to Identify Activators of 5'UTR Stem-Loop Driven Prion Protein mRNA Translation in H4 Neuroglioblastoma Cells. [Related pubchem assays: 1829 (Project Summary), 1814 (Primary HTS)]; type: functional; settings: Homo sapiens
# [19] = target: T7, Ubiquitin-conjugating enzyme E2 N (Homo sapiens, UniProt P61088); type: functional;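 further: Dose-response confirmation in a TR-FRET assay detecting UBC13-driven polyubiquitin chain formation, inhibition measured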
# T7 sequence (P61088 whole entry): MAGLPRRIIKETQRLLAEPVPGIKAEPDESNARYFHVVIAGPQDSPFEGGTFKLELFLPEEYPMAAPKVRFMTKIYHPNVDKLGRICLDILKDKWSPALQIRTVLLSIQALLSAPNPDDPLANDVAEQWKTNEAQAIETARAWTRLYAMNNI
# [20] = intracellular Trypanosoma cruzi inhibitors in host cells – cell-based, plate reader, cherry-pick samples, set 3, dose response (AID 651818); type: functional;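 further: compounds incubated with infected cells for about four days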
# Chain of Eukaryotic translation initiation factor 4E (P63073 whole entry): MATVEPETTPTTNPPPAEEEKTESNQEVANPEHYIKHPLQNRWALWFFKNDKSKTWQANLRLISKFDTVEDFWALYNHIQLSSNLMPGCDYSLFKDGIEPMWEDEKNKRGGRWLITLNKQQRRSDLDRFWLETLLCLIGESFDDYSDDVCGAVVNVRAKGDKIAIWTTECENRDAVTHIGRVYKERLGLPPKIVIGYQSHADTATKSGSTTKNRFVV
# Chain of Estrogen receptor beta (Q92731 whole entry): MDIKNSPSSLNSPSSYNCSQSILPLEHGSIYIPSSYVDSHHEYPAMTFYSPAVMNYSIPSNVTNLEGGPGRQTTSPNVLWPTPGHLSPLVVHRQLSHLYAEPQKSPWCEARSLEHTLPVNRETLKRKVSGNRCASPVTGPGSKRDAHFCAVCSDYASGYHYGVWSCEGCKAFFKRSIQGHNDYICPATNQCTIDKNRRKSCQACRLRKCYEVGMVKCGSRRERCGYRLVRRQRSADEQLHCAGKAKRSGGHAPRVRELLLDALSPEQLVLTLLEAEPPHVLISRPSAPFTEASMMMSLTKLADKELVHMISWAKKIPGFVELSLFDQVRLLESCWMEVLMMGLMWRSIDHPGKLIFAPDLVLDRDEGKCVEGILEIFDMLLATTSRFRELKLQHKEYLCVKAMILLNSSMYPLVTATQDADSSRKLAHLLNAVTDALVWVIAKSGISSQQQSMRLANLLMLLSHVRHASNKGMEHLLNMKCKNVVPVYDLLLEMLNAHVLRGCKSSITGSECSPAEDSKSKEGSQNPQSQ
# Chain of Glyceraldehyde-3-phosphate dehydrogenase (P04406 whole entry): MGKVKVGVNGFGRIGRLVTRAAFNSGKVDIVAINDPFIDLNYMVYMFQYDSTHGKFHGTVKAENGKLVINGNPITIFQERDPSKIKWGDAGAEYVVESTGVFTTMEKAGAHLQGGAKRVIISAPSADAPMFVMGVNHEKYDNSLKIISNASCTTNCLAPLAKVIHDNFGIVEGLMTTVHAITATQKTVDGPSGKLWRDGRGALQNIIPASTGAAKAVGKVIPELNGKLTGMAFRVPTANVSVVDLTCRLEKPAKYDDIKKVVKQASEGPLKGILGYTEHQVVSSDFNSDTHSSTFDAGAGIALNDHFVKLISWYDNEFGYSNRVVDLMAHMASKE
structure (smiles),measurement,setting,value
Clc1ccc(OCCCn2cncn2)cc1Cl,IC50,[1],> 64 µM (inactive)
COc1ccccc1CN1CCN(C(=O)c2ccncc2)CC1,IC50,[1],> 64 µM (inactive)
same,IC50,[2],120 µM (active)
Cn1c(N)c(C(=O)COC(=O)CC2CC3CCC2C3)c(=O)n(C)c1=O (configuration not stated),IC50,[3],2.16 µM (active)
COc1ccc(-c2nc(C(=O)NCCCN3CCOCC3)cc3c2[nH]c2ccccc23)cc1OC,AC50,[4],13.7 µM (active)
same,AC50,[5],4.84 µM (active)
O=C(CCC1CCCC1)Nc1nnc[nH]1,IC50,[6],> 10 µM (inconclusive)
Cc1ccc(C)c(SCC(=O)NC(=O)Nc2ccc3c(c2)OCCO3)c1,IC50,[3],< 0.4 µM (not active)
CC(=O)Nc1cc(-c2cccc(C(=O)NCCN(C)C)c2)cn2c(-c3ccc(S(C)(=O)=O)cc3)cnc12,AC50,[4],25.8 µM (active)
same,AC50,[5],2.7 µM (active)
Oc1cc2c(cc1C(c1ccc(Br)cc1)N1CCCC1)OCO2 (configuration not stated),IC50,[1],50 µM (inactive)
Cn1c2c(c(=O)n(C)c1=O)C(CC(=O)Nc1ccccc1)C(=O)N2 (configuration not stated),IC50,[3],2.62 µM (not active)
same,EC50,[7],> 195 µM (not active)
Cc1n[nH]c(C)c1S(=O)(=O)N(CC(=O)N1CCc2ccccc21)c1ccc(C(C)C)cc1,IC50,[8],> 50 µM (not active)
CN(C)CCCN=C(S)N(CCN(C)C)Cc1cc2cc3c(cc2nc1O)OCCO3,AC50,[5],5.91 µM (active)
CCN(CC)CCCNC(=O)c1cc2c(-c3ccc(Cl)cc3)nn(C)c2s1,EC50,[9],12.1 µM (inconclusive)
same,AC50,[4],35.9 µM (active)
same,EC50,[10],21.8 µM (active)
same,EC50,[11],10.4 µM (active)
same,EC50,[12],4.29 µM (active)
same,EC50,[13],5.12 µM (active)
same,EC50,[14],9.1 µM (active)
same,EC50,[15],0.335 µM (active)
COc1ccc(C(C)=O)c2c(O)cccc12,IC50,[3],0.917 µM (not active)
CC(C)Cc1ccc(C(C)C(=O)OCC(=O)c2c[nH]c3ccccc23)cc1 (configuration not stated),IC50,[3],6.65 µM (not active)
Cc1nc2nc(C)c(C)nc2nc1C,AC50,[4],34.7 µM (active)
O=C(CCC1CCCC1)Nc1ccc(Br)cn1,CC50,[16],> 40 µM (active)
same,EC50,[17],0.805 µM (active)
same,EC50,[18],> 120 µM (not active)
CCC[C@@H](CN1CCC[C@H]1CN1C(N)=NC[C@H]1CC(C)C)N1C[C@@H]([C@H](C)CC)N(CCc2ccc(Cl)c(Cl)c2)C1=N,IC50,[19],> 20 µM (inactive)
same,AC50,[5],12.4 µM (active)
COc1ccc(S(=O)(=O)N(C)C[C@@H]2Oc3c(NS(=O)(=O)c4ccccc4)cccc3C(=O)N([C@@H](C)CO)C[C@@H]2C)cc1,AC50,[20],12.9 µM (active)

# From ChEMBL document CHEMBL1201862, “PubChem BioAssay data set” (2004)
